The values that follow come from patent publication US20210300936A1, “PYRAZOLOTRIAZOLOPYRIMIDINE DERIVATIVES AS A2A RECEPTOR ANTAGONIST” (BEIGENE, LTD., priority 2018, published 2021).

The assay concerns the target human A2A receptor (A2AR) (Homo sapiens, UniProt P29274). The assay can be described thus: Luciferase reporter assay (HEK293-A2AR-luc2p/CRE/Hygro cells, 3 nM CGS21680). In kind it is cell-based. Particulars: 3 nM CGS21680, 5 h incubation. The protocol: HEK293 cells were maintained in Dulbecco's modified Eagle's medium (DMEM, Gibco) supplemented with 10% fetal bovine serum (FBS, Thermo Scientific), 100 units/mL penicillin (Gibco), and 0.1 mg/mL streptomycin (Gibco) in a humidified 37° C. environment with 5% C02. Plasmid encoding wild-type human A2A receptor (A2AR) (in pcDNA3.1) was synthesized by Genscript (Nanjing, China). Transfection of the plasmids was performed in 6-well plates with 4×10^5 cells using Lipofectamin 2000 (ThermoFisher Scientific) according to the instruction of the manufacturer. Cell clones that stably express A2AR were established and maintained in the same complete medium as the HEK293 cells in addition of G-418 (Gibico). Expression level of A2AR in each single cell clone was determined using immunoblotting and FACS method. HEK293-A2AR stable cells were then transfected with pGL4.29[luc2P/CRE/Hygro] (Promega) luciferase reporter plasmid for establishing the HEK293-A2AR-luc2p/CRE/Hygro stable cell line.
HEK293-A2AR-luc2p/CRE/Hygro cells were seeded at a density of 5,000 cells/well in DMEM with 1% FBS and 1 U/mL adenosine deaminase (ADA) (Sigma). After 18 h, the cells were treated with 3 nM CGS21680 plus a series dilution of A2AR antagonist, the compounds disclosed herein at the concentration of 0.1˜10000 nM, prepared in DMEM with 1% FBS. After 5 h incubation, the luciferase activity in cells were measured using the Bright-Glo Luciferase Assay System (Promega) according to manufacturer's instructions. The luminescence signal was measured using a PHERAstar FS plate reader (BMG Labtech). […] Maximal luminescence intensity was determined in the presence of 3 nM CGS21680 and was set as 100%. The IC50 value was calculated from a dose dependent inhibition curve across the range of compound concentrations.

human A2A receptor (A2AR), sequence (P29274 whole entry): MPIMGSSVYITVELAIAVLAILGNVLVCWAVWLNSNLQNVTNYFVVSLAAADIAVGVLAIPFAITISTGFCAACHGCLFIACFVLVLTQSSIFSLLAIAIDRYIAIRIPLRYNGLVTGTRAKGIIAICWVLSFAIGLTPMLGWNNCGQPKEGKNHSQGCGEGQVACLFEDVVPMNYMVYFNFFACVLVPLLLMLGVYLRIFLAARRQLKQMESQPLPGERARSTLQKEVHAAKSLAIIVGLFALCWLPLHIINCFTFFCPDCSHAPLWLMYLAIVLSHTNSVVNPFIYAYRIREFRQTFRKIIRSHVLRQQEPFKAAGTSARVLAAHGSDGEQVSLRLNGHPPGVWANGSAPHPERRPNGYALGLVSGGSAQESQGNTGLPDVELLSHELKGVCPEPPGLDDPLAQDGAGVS

As for `Nc1nc2c(cnn2C(C(=O)N2CCc3ccncc3C2)c2ccccc2)c2nc(-c3ccco3)nn12` (centres unmarked) [Compound B8, 2-(5-amino-2-(furan-2-yl)-7H-pyrazolo[4,3-e][1,2,4]triazolo[1,5-c]pyrimidin-7-yl)-1-(3,4-dihydro-2,7-naphthyridin-2(1H)-yl)-2-phenylethan-1-one], the half-inhibitory concentration (IC50) came out at 4 nM. Molecule `CC(C(=O)N1CC2(CCOCC2)C1)(c1ccccc1)n1ncc2c1nc(N)n1nc(-c3ccco3)nc21` (centres unmarked) [Compound B26, 2-(5-amino-2-(furan-2-yl)-7H-pyrazolo[4,3-e][1,2,4]triazolo[1,5-c]pyrimidin-7-yl)-2-phenyl-1-(7-oxa-2-azaspiro[3.5]nonan-2-yl)propan-1-one] came in with a half-maximal inhibitory concentration (IC50) of 15.4 nM. `CCCC(C(=O)N1CCN(c2ccc(F)cc2F)CC1)n1cc2c(nc(N)n3nc(-c4ccco4)nc23)n1` (centres unmarked) [Compound C21, 2-(5-amino-2-(furan-2-yl)-8H-pyrazolo[4,3-e][1,2,4]triazolo[1,5-c]pyrimidin-8-yl)-1-(4-(2,4-difluorophenyl)piperazin-1-yl)pentan-1-one]: the IC50 is 100 nM. Molecule `COCCOc1ccc(N2CCN(C(=O)C(c3ccccc3)n3ncc4c3nc(N)n3nc(-c5ccco5)nc43)C(C)C2)cc1` (single isomer, unassigned) [Compound A50a] had an IC50 of 88.2 nM. `C[C@](C(=O)N1CCN(c2ccc(F)cc2)CC1)(c1ccccc1)n1ncc2c1nc(N)n1nc(-c3ccco3)nc21` [Compound A70b, (R)-2-(5-amino-2-(furan-2-yl)-7H-pyrazolo[4,3-e][1,2,4]triazolo[1,5-c]pyrimidin-7-yl)-1-(4-(4-fluorophenyl)piperazin-1-yl)-2-phenylpropan-1-one] registered a half-inhibitory concentration (IC50) of 3.4 nM.

For the molecule `COCCOc1ccc(N2CCN(C(=O)C(C)(c3ccccc3)n3ncc4c3nc(N)n3nc(-c5ccco5)nc43)C[C@@H]2C)cc1` (stereo partly drawn) [Compound A74, 2-(5-amino-2-(furan-2-yl)-7H-pyrazolo[4,3-e][1,2,4]triazolo[1,5-c]pyrimidin-7-yl)-1-((S)-4-(4-(2-methoxyethoxy)phenyl)-3-methylpiperazin-1-yl)-2-phenylpropan-1-one], the IC50 amounted to 5.1 nM. The figure for `CC(C(=O)N1CCN(c2ccc(OCCN)cc2)CC1)n1ncc2c1nc(N)n1nc(-c3ccco3)nc21` (centres unmarked) [Compound A7, 2-(5-amino-2-(furan-2-yl)-7H-pyrazolo[4,3-e][1,2,4]triazolo[1,5-c]pyrimidin-7-yl)-1-(4-(4-(2-aminoethoxy)phenyl)piperazin-1-yl)propan-1-one] is 23.1 nM. `COCCOc1ccc(N2CCN(C(=O)C(c3cccc(F)c3)n3ncc4c3nc(N)n3nc(-c5ccco5)nc43)CC2)cc1` (centres unmarked) [Compound A42, 2-(5-amino-2-(furan-2-yl)-7H-pyrazolo[4,3-e][1,2,4]triazolo[1,5-c]pyrimidin-7-yl)-2-(3-fluorophenyl)-1-(4-(4-(2-methoxyethoxy)phenyl)piperazin-1-yl)ethan-1-one] gave a 50% inhibitory concentration (IC50) of 5.1 nM. For `CCCCC(C(=O)N1CCN(c2ccc(OCCOCCOC)cc2)CC1)n1cc2c(nc(N)n3nc(-c4ccco4)nc23)n1` (centres unmarked) [Compound C11, 2-(5-amino-2-(furan-2-yl)-8H-pyrazolo[4,3-e][1,2,4]triazolo[1,5-c]pyrimidin-8-yl)-1-(4-(4-(2-(2-methoxyethoxy)ethoxy)phenyl)piperazin-1-yl)hexan-1-one], half-maximal inhibition (IC50) required 118 nM. The figure for `CC(C(=O)N1CCN(c2ccc(C(=O)NC3CCCCC3)cc2)CC1)(c1ccccc1)n1ncc2c1nc(N)n1nc(-c3ccco3)nc21` (centres unmarked) [Compound A98, 4-(4-(2-(5-amino-2-(furan-2-yl)-7H-pyrazolo[4,3-e][1,2,4]triazolo[1,5-c]pyrimidin-7-yl)-2-phenylpropanoyl)piperazin-1-yl)-N-cyclohexylbenzamide] is 7.2 nM; for `CC(C(=O)N1CCN(c2ccc(C(=O)N3CCCCC3)cc2)CC1)(c1ccccc1)n1ncc2c1nc(N)n1nc(-c3ccco3)nc21` (centres unmarked) [Compound A102, 2-(5-amino-2-(furan-2-yl)-7H-pyrazolo[4,3-e][1,2,4]triazolo[1,5-c]pyrimidin-7-yl)-2-phenyl-1-(4-(4-(piperidine-1-carbonyl)phenyl)piperazin-1-yl)propan-1-one] it is 9.2 nM. The molecule `CN1CCN(CCCOc2ccc(N3CCN(C(=O)[C@](C)(c4ccccc4)n4ncc5c4nc(N)n4nc(-c6ccco6)nc54)CC3)cc2)CC1` [Compound A82a, (S)-2-(5-amino-2-(furan-2-yl)-7H-pyrazolo[4,3-e][1,2,4]triazolo[1,5-c]pyrimidin-7-yl)-1-(4-(4-(3-(4-methylpiperazin-1-yl)propoxy)phenyl)piperazin-1-yl)-2-phenylpropan-1-one] had a concentration for half-maximal inhibition (IC50) of 12.2 nM.

Turning to `CN(C)C(=O)c1ccccc1N1CCN(C(=O)C(C)(c2ccccc2)n2ncc3c2nc(N)n2nc(-c4ccco4)nc32)CC1` (centres unmarked) [Compound A96, 2-(4-(2-(5-amino-2-(furan-2-yl)-7H-pyrazolo[4,3-e][1,2,4]triazolo[1,5-c]pyrimidin-7-yl)-2-phenylpropanoyl)piperazin-1-yl)-N,N-dimethylbenzamide], the IC50 came out at 13.7 nM.

`CO[C@@H]1CCCN(C(=O)C(C)(c2ccccc2)n2ncc3c2nc(N)n2nc(-c4ccco4)nc32)C1` (stereo partly drawn) [Compound B31, 2-(5-amino-2-(furan-2-yl)-7H-pyrazolo[4,3-e][1,2,4]triazolo[1,5-c]pyrimidin-7-yl)-1-((R)-3-methoxypiperidin-1-yl)-2-phenylpropan-1-one] came in with an IC50 of 46 nM.

`CCCCC(C(=O)N1CCN(c2ccc(OCCNC)cc2)CC1)n1ncc2c1nc(N)n1nc(-c3ccco3)nc21` (centres unmarked) [Compound A35, 2-(5-amino-2-(furan-2-yl)-7H-pyrazolo[4,3-e][1,2,4]triazolo[1,5-c]pyrimidin-7-yl)-1-(4-(4-(2-(methylamino)ethoxy)phenyl)piperazin-1-yl)hexan-1-one] registered a 50% inhibitory concentration (IC50) of 5.8 nM.

`CCC(C(=O)N1CCN(c2ccc(OCCOC)cc2)CC1)n1ncc2c1nc(N)n1nc(-c3ccco3)nc21` (centres unmarked) [Compound A4, 2-(5-amino-2-(furan-2-yl)-7H-pyrazolo[4,3-e][1,2,4]triazolo[1,5-c]pyrimidin-7-yl)-1-(4-(4-(2-methoxyethoxy)phenyl)piperazin-1-yl)butan-1-one] displayed a 50% inhibitory concentration (IC50) of 43.5 nM. In turn, `CC(C(=O)N1CCN(c2ccccc2C(=O)NCC2(O)COC2)CC1)(c1ccccc1)n1ncc2c1nc(N)n1nc(-c3ccco3)nc21` (centres unmarked) [Compound A100, 2-(4-(2-(5-amino-2-(furan-2-yl)-7H-pyrazolo[4,3-e][1,2,4]triazolo[1,5-c]pyrimidin-7-yl)-2-phenylpropanoyl)piperazin-1-yl)-N-((3-hydroxyoxetan-3-yl)methyl)benzamide] had an IC50 of 25 nM. In turn, `COCCOc1cccc2c1CN(C(=O)C(c1ccccc1)n1ncc3c1nc(N)n1nc(-c4ccco4)nc31)CC2` (centres unmarked) [Compound B16, 2-(5-amino-2-(furan-2-yl)-7H-pyrazolo[4,3-e][1,2,4]triazolo[1,5-c]pyrimidin-7-yl)-1-(8-(2-methoxyethoxy)-3,4-dihydroisoquinolin-2(1H)-yl)-2-phenylethan-1-one] gave an IC50 of 5.6 nM. `COCCOc1ccc(N2CCN(C(=O)C(c3ccc(F)cc3)n3ncc4c3nc(N)n3nc(-c5ccco5)nc43)CC2)cc1` (centres unmarked) [Compound A28, 2-(5-amino-2-(furan-2-yl)-7H-pyrazolo[4,3-e][1,2,4]triazolo[1,5-c]pyrimidin-7-yl)-2-(4-fluorophenyl)-1-(4-(4-(2-methoxyethoxy)phenyl)piperazin-1-yl)ethan-1-one] returned an IC50 of 7.6 nM.

`COCCOc1ccc(N2CCN(C(=O)C(CC(C)C)n3ncc4c3nc(N)n3nc(-c5ccco5)nc43)CC2)c(F)c1` (centres unmarked) [Compound A23, 2-(5-amino-2-(furan-2-yl)-7H-pyrazolo[4,3-e][1,2,4]triazolo[1,5-c]pyrimidin-7-yl)-1-(4-(2-fluoro-4-(2-methoxyethoxy)phenyl)piperazin-1-yl)-4-methylpentan-1-one] gave a concentration for half-maximal inhibition (IC50) of 1.4 nM. Then `COCCOc1ccc(N2CCN(C(=O)C(c3ccccc3F)n3ncc4c3nc(N)n3nc(-c5ccco5)nc43)CC2)cc1` (centres unmarked) [Compound A43, 2-(5-amino-2-(furan-2-yl)-7H-pyrazolo[4,3-e][1,2,4]triazolo[1,5-c]pyrimidin-7-yl)-2-(2-fluorophenyl)-1-(4-(4-(2-methoxyethoxy)phenyl)piperazin-1-yl)ethan-1-one], with 0.9 nM; and `Cc1ccc2c(c1)CN(C(=O)C(c1ccccc1)n1ncc3c1nc(N)n1nc(-c4ccco4)nc31)CC2` (centres unmarked) [Compound B17, 2-(5-amino-2-(furan-2-yl)-7H-pyrazolo[4,3-e][1,2,4]triazolo[1,5-c]pyrimidin-7-yl)-1-(7-methyl-3,4-dihydroisoquinolin-2(1H)-yl)-2-phenylethan-1-one], with 1.3 nM.

In the case of `Nc1nc2c(cnn2C(C(=O)N2CCc3cccnc3C2)c2ccccc2)c2nc(-c3ccco3)nn12` (centres unmarked) [Compound B9, 2-(5-amino-2-(furan-2-yl)-7H-pyrazolo[4,3-e][1,2,4]triazolo[1,5-c]pyrimidin-7-yl)-1-(5,8-dihydro-1,7-naphthyridin-7(6H)-yl)-2-phenylethan-1-one], the IC50 came to 3.4 nM.
